How the values were obtained:
Assay in all cases: relative viability (nuclei count vs DMSO), 5 days (fraction); higher = more cells survive
Carboplatin + Tozasertib = compound: C1CC(C1)(C(=O)O)C(=O)O.[NH2-].[NH2-].[Pt+2] [Carboplatin] + Cc1cc(Nc2cc(N3CCN(C)CC3)nc(Sc3ccc(NC(=O)C4CC4)cc3)n2)n[nH]1 [Tozasertib] (partner 0.1 µM)
Outline: (§1)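 One day after seeding in 1536-well plates, lung cancer cell lines were dosed by pin tool. Dosing was either single-drug or a fixed anchor-drug dose plus five library-drug doses (not always all listed) in √10 steps. After 5 days, nuclei were stained in one fix-and-stain step and counted on 4× images, and relative viability is the nuclei count of treated wells over that of vehicle wells, given as the median of duplicate plates.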

GSK126 + Luminespib = compound: CC[C@H](C)N1C=C(C2=C(C=C(C=C21)C3=CN=C(C=C3)N4CCNCC4)C(=O)NCC5=C(C=C(NC5=O)C)C)C [GSK126] + CCNC(=O)c1noc(-c2cc(C(C)C)c(O)cc2O)c1-c1ccc(CN2CCOCC2)cc1 [Luminespib] (partner 0.01 µM)
Outline: as §1

MLN4924 + AZD7762 = compound: NS(=O)(=O)OC[C@@H]1C[C@@H](n2ccc3c(N[C@H]4CCc5ccccc54)ncnc32)C[C@@H]1O [MLN4924] + NC(=O)Nc1cc(-c2cccc(F)c2)sc1C(=O)N[C@H]1CCCNC1 [AZD7762] (partner 0.2 µM)
Outline: as §1

GSK126 + Tozasertib = compound: CC[C@H](C)N1C=C(C2=C(C=C(C=C21)C3=CN=C(C=C3)N4CCNCC4)C(=O)NCC5=C(C=C(NC5=O)C)C)C [GSK126] + Cc1cc(Nc2cc(N3CCN(C)CC3)nc(Sc3ccc(NC(=O)C4CC4)cc3)n2)n[nH]1 [Tozasertib] (partner 0.1 µM)
Outline: as §1

| Cell Line | relative viability (Carboplatin + Tozasertib; first compound 0.08 µM) | relative viability (Carboplatin + Tozasertib; first compound 0.253 µM) | relative viability (Carboplatin + Tozasertib; first compound 0.8 µM) | relative viability (Carboplatin + Tozasertib; first compound 2.53 µM) | relative viability (Carboplatin + Tozasertib; first compound 8 µM) | relative viability (GSK126 + Luminespib; first compound 0.08 µM) | relative viability (GSK126 + Luminespib; first compound 0.253 µM) | relative viability (GSK126 + Luminespib; first compound 0.8 µM) | relative viability (GSK126 + Luminespib; first compound 2.53 µM) | relative viability (GSK126 + Luminespib; first compound 8 µM) | relative viability (MLN4924 + AZD7762; first compound 0.04 µM) | relative viability (MLN4924 + AZD7762; first compound 0.1265 µM) | relative viability (MLN4924 + AZD7762; first compound 0.4 µM) | relative viability (MLN4924 + AZD7762; first compound 1.265 µM) | relative viability (MLN4924 + AZD7762; first compound 4 µM) | relative viability (GSK126 + Tozasertib; first compound 0.08 µM) | relative viability (GSK126 + Tozasertib; first compound 0.253 µM) | relative viability (GSK126 + Tozasertib; first compound 0.8 µM) | relative viability (GSK126 + Tozasertib; first compound 2.53 µM) | relative viability (GSK126 + Tozasertib; first compound 8 µM) |
| --- | --- | --- | --- | --- | --- | --- | --- | --- | --- | --- | --- | --- | --- | --- | --- | --- | --- | --- | --- | --- |
| NCI-H1437 | 0.386 | 0.43 | 0.403 | 0.4 | 0.401 | 1.09 | 1.07 | 1.04 | 1.11 | 1.06 | 0.999 | 0.852 | 0.855 | 0.589 | 0.285 | 0.42 | 0.433 | 0.4 | 0.35 | 0.388 |
| EMC-BAC-2 | 0.313 | 0.292 | 0.275 | 0.266 | 0.326 | 1.19 | 1.17 | 1.17 | 1.11 | 1.24 | 1.06 | 0.869 | 0.377 | 0.224 | 0.288 | 0.306 | 0.266 | 0.154 | 0.238 | 0.249 |
| NCI-H520 | 0.5 | 0.433 | 0.438 | 0.389 | 0.459 | 0.22 | 0.221 | 0.236 | 0.231 | 0.237 | – | – | – | – | – | 0.594 | 0.426 | 0.48 | 0.443 | 0.352 |
| NCI-H1993 | 0.61 | 0.643 | 0.575 | 0.593 | 0.635 | 0.829 | 0.931 | 0.363 | 0.877 | 0.832 | 0.756 | 0.572 | 0.424 | 0.369 | 0.405 | 0.586 | 0.639 | 0.585 | 0.659 | 0.649 |
| HCC-827 | 0.441 | 0.414 | 0.413 | 0.418 | 0.397 | 0.612 | 0.685 | 0.676 | 0.629 | 0.783 | 0.687 | 0.556 | 0.374 | 0.195 | 0.151 | 0.428 | 0.433 | 0.453 | 0.387 | 0.408 |
| NCI-H2087 | 0.272 | 0.242 | 0.23 | 0.272 | 0.226 | 0.144 | 0.134 | 0.142 | 0.165 | 0.185 | 1.3 | 1.17 | 0.604 | 0.165 | 0.128 | 0.23 | 0.222 | 0.214 | 0.202 | 0.258 |
| HARA | 0.146 | 0.122 | 0.09 | 0.11 | 0.11 | 0.787 | 0.679 | 0.688 | 0.895 | 0.813 | 0.42 | 0.328 | 0.415 | 0.0749 | 0.106 | 0.131 | 0.0947 | 0.0975 | 0.0847 | 0.106 |
| NCI-H2126 | 0.971 | 0.915 | 0.882 | 0.828 | 0.732 | 1 | 0.924 | 0.873 | 0.972 | 0.734 | 1.02 | 1.02 | 0.767 | 0.49 | 0.369 | 1 | 0.835 | 0.871 | 0.838 | 0.812 |
| LCLC-103H | 0.517 | 0.466 | 0.439 | 0.532 | 0.473 | 1.16 | 0.931 | 0.908 | 1.01 | 0.994 | 0.831 | 0.833 | 0.7 | 0.239 | 0.247 | 0.699 | 0.473 | 0.435 | 0.512 | 0.446 |
| SK-LU-1 | 0.366 | 0.293 | 0.341 | 0.346 | 0.275 | 0.194 | 0.192 | 0.215 | 0.182 | 0.214 | – | – | – | – | – | 0.293 | 0.357 | 0.366 | 0.321 | 0.331 |
| EKVX | 0.439 | 0.371 | – | 0.381 | 0.38 | 0.842 | 0.878 | 0.856 | 0.836 | 0.896 | 0.854 | 0.784 | 0.674 | 0.314 | 0.232 | 0.411 | 0.443 | 0.4 | 0.355 | 0.326 |
| HCC-366 | 0.13 | 0.139 | 0.111 | 0.1 | 0.0814 | – | – | – | – | – | 0.312 | 0.56 | 0.526 | 0.297 | 0.0472 | 0.193 | 0.117 | 0.123 | 0.0783 | 0.0929 |
| NCI-H1650 | 0.473 | 0.342 | 0.427 | 0.348 | 0.373 | 0.217 | 0.193 | 0.188 | 0.166 | 0.205 | – | – | – | – | – | 0.42 | 0.455 | 0.394 | 0.356 | 0.3 |
| COR-L23 | 0.237 | 0.217 | 0.186 | 0.144 | 0.148 | 0.752 | 0.702 | 0.614 | 0.637 | 0.608 | – | – | – | – | – | 0.206 | 0.228 | 0.208 | 0.168 | 0.175 |
| NCI-H647 | 0.402 | 0.488 | 0.272 | 0.239 | 0.229 | 0.358 | 0.193 | 0.144 | 0.202 | 0.124 | 0.412 | 0.334 | 0.0972 | 0.0222 | 0.0279 | 0.375 | 0.268 | 0.288 | 0.282 | 0.126 |
| LXF-289 | 0.199 | 0.209 | 0.22 | 0.218 | 0.177 | 0.736 | 0.652 | 0.574 | 0.661 | 0.747 | 1.06 | 0.775 | 0.691 | 0.113 | 0.0848 | 0.162 | 0.149 | 0.218 | 0.176 | 0.181 |
| NCI-H1703 | – | – | – | – | – | – | – | – | – | – | 0.135 | 0.126 | 0.111 | 0.11 | 0.123 | – | – | – | – | – |
| NCI-H1793 | 0.446 | 0.386 | 0.301 | 0.317 | 0.501 | 0.152 | 0.177 | 0.164 | 0.258 | 0.152 | 0.714 | 0.463 | 0.51 | 0.406 | 0.216 | 0.324 | 0.331 | 0.422 | 0.475 | 0.363 |
